Experimental data: patent US9822069B2, “Urea derivative or pharmacologically acceptable salt thereof” (KYORIN PHARMACEUTICAL CO. LTD., priority 2013, dated 2017)

Target: T1, human FPRL1 (Homo sapiens, UniProt P25090)
T1 construct: expressed in transfected cells; host or cells: HEK293 (JCRB9068, NIBIO), transient transfection with pCMV-script vectors using Lipofectamine 2000
T1 sequence (P25090 1-351): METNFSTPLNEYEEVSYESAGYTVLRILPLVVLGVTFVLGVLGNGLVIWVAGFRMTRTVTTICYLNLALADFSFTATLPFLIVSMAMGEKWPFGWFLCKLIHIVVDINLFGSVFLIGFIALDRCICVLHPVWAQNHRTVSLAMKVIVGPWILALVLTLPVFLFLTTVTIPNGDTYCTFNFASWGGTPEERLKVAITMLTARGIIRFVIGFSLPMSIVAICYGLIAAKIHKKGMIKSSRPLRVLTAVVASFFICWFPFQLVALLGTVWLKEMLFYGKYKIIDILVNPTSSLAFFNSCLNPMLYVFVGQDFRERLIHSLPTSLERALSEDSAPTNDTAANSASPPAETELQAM
Test: Measurement test of agonist activity on human FPRL1 (test of calcium mobilization in cell, HEK293 with human FPRL1 and Gα15 expression vectors)
Format: cell-based
Settings: calcium mobilization in HEK293 cells with human FPRL1 and Gα15 expression vectors
From the text: Measurement Test of Agonist Activity on Human FPRL1
(1-1) Construction of Human FPRL1 Expression Vector
Human FPRL (SEQ ID NO: 3) was amplified in a PCR reaction from cDNA derived from a monocytic leukemia cell line THP-1 (TIB-202, ATCC) as a template using a forward primer shown in SEQ ID NO: 1, a reverse primer shown in SEQ ID NO: 2, and KOD-plus-ver. 2 (KOD-211, TOYOBO CO., LTD.). The amplified PCR product and pCMV-script vector (212220, STRATAGENE) were digested with Hind III (1060A, Takara Bio Inc.) and XhoI (1094A, Takara Bio Inc.), and the resultant digest was ligated with Ligation high ver. 2 (LGK-201, TOYOBO CO., LTD.). The ligation product was transformed into DH5α (DNA-901, TOYOBO CO., LTD.), cultured on a 100 μg/mL kanamycin-containing LB medium, and purified with HiSpeed Plasmid Maxi Kit (12662, QIAGEN).
(1-2) Construction of Human Gα15 Expression Vector
Human Gα15 (SEQ ID NO: 6) was amplified in a PCR reaction from cDNA derived from a myeloid leukemia cell line HL-60 (CCL-240, ATCC) as a template using a forward primer shown in SEQ ID NO: 4, a reverse primer shown in SEQ ID NO: 5, and KOD-plus-ver. 2. The amplified PCR product and pCMV-script vector were digested with Hind III and XhoI, and the resultant digest was ligated with Ligation high ver. 2. The ligation product was transformed into DH5α, cultured on a 100 μg/mL kanamycin-containing LB medium, and purified with HiSpeed Plasmid Maxi Kit.
(2-1) Method for Culturing and Subculturing HEK293
HEK293 (JCRB9068, NIBIO) was cultured in an incubator at 5% CO2 and 37° C. using DMEM (11885-092, GIBCO) containing 10% FBS and 1× Penicillin-Streptomycin (15140-122, GIBCO). Subculture was carried out as followings: The cells that reached 80 to 90% confluency were washed with PBS(−), separated using 0.25% Trypsin-EDTA (25200-072, GIBCO), centrifuged, re-suspended in a fresh medium, and then seeded in Collagen Type 1 Coated dish (4020-010, IWAKI) at a split ratio of 1:8 (cultured for 3 days).
(2-2) Introduction of Human FPRL1 and Gα15 Expression Vectors
HEK293 that reached 80 to 90% confluency was washed with PBS(−), separated using 0.25% Trypsin-EDTA, centrifuged, and re-suspended in a fresh medium excluding 1× Penicillin-Streptomycin. The cells were inoculated in a Collagen Type 1 coated 6-well plate (4810-010, IWAKI) to 5×10^5 cells/2.5 mL/well and cultured overnight. On the next day, human FPRL1 and Gα15 expression vectors were introduced using Lipofectamine 2000 transfection reagent (11668-019, Life technologies). First, the human FPRL1 and Gα15 expression vectors were diluted with Opti-MEM I Reduced Serum Medium (31985-070, GIBCO) to 2 μg/250 μL/well and Lipofectamine 2000 transfection reagent was diluted with Opti-MEM I Reduced Serum Medium to be 4 μL/250 μL/well. The vectors and reagent were softly diffused, and incubated at room temperature for 5 minutes. The vector solution was mixed with Lipofectamine 2000 transfection reagent in equal amounts. In order to form a composite of the vectors and Lipofectamine 2000 transfection reagent, the mixture was incubated at room temperature for 20 minutes, and added at 500 μL/well to the medium of inoculated cells. The treated cells were cultured for 24 hours, inoculated in Poly-D-Lysine coated 96-well plate (356640, BD Biosciences) at a cell density of 7×10^4 cells/100 μL/well, and cultured for another 24 hours. The resultant cells were used in a measurement test of calcium mobilization in the cells.
(3) Evaluation of Agonist Activity on Human FPRL1 (Test of Calcium Mobilization in Cell)
An appropriate amount of each test compound was first weighed, and dissolved to 10^−2 M by addition of dimethyl sulfoxide (DMSO). […]

EC50 [nM]	Compound
0.9	COc1ccc([C@@H]2CNC(=O)[C@H]2NC(=O)Nc2ccc(F)cc2)cc1F (single isomer, unassigned) [EXAMPLE 1-8, (−)-1-[(3S*,4R*)-4-(3-fluoro-4-methoxyphenyl)-2-oxopyrrolidin-3-yl]-3-(4-fluorophenyl)urea]
0.06	CCCN1C[C@@H](c2c(F)cc(OC)cc2F)[C@H](NC(=O)Nc2ccc(F)cc2)C1=O (relative stereo) [Example 24-11, (−)-1-[(3S*,4R*)-4-(2,6-difluoro-4-methoxyphenyl)-2-oxo-1-propylpyrrolidin-3-yl]-3-(4-fluorophenyl)urea]
0.29	COc1cc(F)c([C@@H]2CNC(=O)[C@H]2NC(=O)Nc2ccc(Cl)s2)c(F)c1 (relative stereo) [Example 8-1, (−)-1-(5-Chlorothiophen-2-yl)-3-[(3S*,4R*)-4-(2,6-difluoro-4-methoxyphenyl)-2-oxopyrrolidin-3-yl]urea]
2.86	CCOC(=O)CC/N=C1\NC[C@@H](c2c(F)cc(OC)cc2F)[C@@H]1NC(=O)Nc1ccc(F)cc1 [EXAMPLE 32-20, 3-((Z)-{(3S,4R)-4-(2,6-difluoro-4-methoxyphenyl)-3-[3-(4-fluorophenyl)ureido]pyrrolidin-2-ylidene}amino) propanoic acid ethyl ester]
0.88	CO/N=C1\NC[C@@H](c2c(F)cc(OC)cc2F)[C@@H]1NC(=O)Nc1cc2ccccc2s1 (single isomer, unassigned) [EXAMPLE 32-11, (−)-1-(benzo[b]thiophen-2-yl)-3-[(3S*,4R*,Z)-4-(2,6-difluoro-4-methoxyphenyl)-2-(methoxyimino)pyrrolidin-3-yl]urea]
1.6	COc1cnc([C@@H]2CNC(=O)[C@H]2NC(=O)Nc2ccc(Cl)s2)c(F)c1 (relative stereo) [Example 8-2, (−)-1-(5-chlorothiophen-2-yl)-3-[(3S*,4R*)-4-(3-fluoro-5-methoxypyridin-2-yl)-2-oxopyrrolidin-3-yl]urea]
4.54	COc1cc(F)c([C@@H]2CNC(=O)[C@H]2NC(=O)Nc2ccc(Cl)cn2)c(F)c1 (relative stereo) [Example 1-32, (−)-1-(5-chloropyridin-2-yl)-3-[(3S*,4R*)-4-(2,6-difluoro-4-methoxyphenyl)-2-oxopyrrolidin-3-yl]urea]
0.05	COc1ccc([C@@H]2CN(C(C)(C)CO)C(=O)[C@H]2NC(=O)Nc2ccc(F)cc2)cc1 (relative stereo) [Example 12-4, (−)-1-(4-fluorophenyl)-3-[(3S*,4R*)-1-(1-hydroxy-2-methylpropan-2-yl)-4-(4-methoxyphenyl)-2-oxopyrrolidin-3-yl]urea]
0.43	COc1ccc(C2CN(CCO)C(=O)C2NC(=O)Nc2ccc(F)cc2)cc1 (stereo not drawn) [Example 12-15, (+)-1-(4-fluorophenyl)-3-[1-(2-hydroxyethyl)-4-(4-methoxyphenyl)-2-oxopyrrolidin-3-yl]urea]
0.07	CNC(=O)CN1C[C@@H](c2c(F)cc(OC)cc2F)[C@H](NC(=O)Nc2ccc(F)cc2)C1=O (relative stereo) [Example 17-2, (−)-2-{(3S*,4R*)-4-(2,6-difluoro-4-methoxyphenyl)-3-[3-(4-fluorophenyl)ureido]-2-oxopyrrolidin-1-yl}-N-methylacetamide]
0.8	N#CCN1C[C@@H](c2cc3c(cc2F)OCC3)[C@H](NC(=O)Nc2ccc(F)cc2)C1=O (single isomer, unassigned) [EXAMPLE 24-23, (−)-1-[(3S*,4R*)-1-(cyanomethyl)-4-(6-fluoro-2,3-dihydrobenzofuran-5-yl)-2-oxopyrrolidin-3-yl]-3-(4-fluorophenyl)urea]
1.64	C#Cc1ccc(NC(=O)N[C@@H]2C(=O)NC[C@H]2c2c(F)cc(OC)cc2F)cc1 (single isomer, unassigned) [EXAMPLE 28-4, (−)-1-[(3S*,4R*)-4-(2,6-Difluoro-4-methoxyphenyl)-2-oxopyrrolidin-3-yl]-3-(4-ethynylphenyl) urea]
